According to patent US20220356174A1, “PYRIDIN-2-ONE COMPOUNDS USEFUL AS SMARCA2 ANTAGONISTS” (Epizyme, Inc., priority 2018, published 2022):
Like-named read-outs stand apart in the source and are kept apart here.

Tests used:
[1] = biological target: T1, FL-SMARCA2 (full-length human SMARCA2 isoform 1) (Homo sapiens, UniProt P51531); experiment: SMARCA2 ATPase activity assay (ADP-Glo, chicken mononucleosome substrate); assay type: biochemical; details: ATPase assay, enzyme 5 nM, ATP 250 uM, chicken mononucleosome 10 nM, 30 min preincubation
T1 construct: FLAG tag (YKDDDDK) (C); made in house; host or cells: Sf21 insect cells (baculovirus, pFastBacI)

A549 cells = experiment: High-throughput proliferation (HTP) assay for A549 cells (CellTiter-Glo, 7 days); assay type: cell-based; details: Homo sapiens, 168 h, read-out: A549 SMARCA2 IC50
Experimental: Thawing vials: A549 cells (ATCC #CCL-185™) were thawed from a cryovial containing approximately 1.6×10^6 cells frozen in 70% F12K medium, 20% HI-FBS and 10% DMSO. Cells were thawed by submerging the bottom half of the vial in a 37° C. water bath and gently flicked until almost thawed. The cells were transferred into a 15 mL conical tube containing 9 mL of F12K medium+10% HI-FBS and then centrifuged at 200×g for 4 min before drawing off the media without disturbing the cell pellet in order to remove the DMSO. The cells were resuspended again in 15 mL of F12K fresh complete media+10% HI-FBS and grown up in a T75 flask at 37° C. with 5% CO2 Incubator. Viability was measured to obtain baseline.
Frozen stock vials preparation: The cell culture was transferred to a 50 mL conical tube, spun down to remove medium, and resuspended at 1-2×10^6 cells/mL in complete medium containing 10% DMSO. The culture was then stored for 24 hours at −80 degree C., (with the initial rate of freezing is −1 degree C. per minute in a freezing container), then transferred and stored in liquid nitrogen.
(§1) Routine subculture: Sub-confluent cultures (70-80%) were split every 4 days, seeding out at 1-2×10^6 cells/75 cm^2.
Day 0: Assay ready plates were prepared by dispensing 50 nL of compound or DMSO in the appropriate wells of 384-well white CulturPlates using Echo550. Using the Multiflo, A549 cells were plated at 50 μL/well in F12K complete media+10% HI-FBS+1% pen/strep at cell density determined [1,250 cells/mL (62.5 cells/well)] from growth curve.
Treated cells were incubated at 37° C., 5% CO2, relative humidity >90% for 7 days. CellTiter-Glo (CTG) ATP detection reagent was prepared according to manufacturer's specifications. Cell assay plates were removed from the incubator and brought to room temperature (RT). Using the MultiDrop liquid handler, 30 μL of CTG were added per well. Plates were placed on the multidrop dispenser shake for 5 seconds at room temperature (RT). Plates were incubated for 30 minutes in the dark at RT before measuring luminescence using the Envison2104.
Data analysis: Using the DMSO control wells as the 0% inhibition (high signal) control and the 10 μM Doxorubicin control wells as the 100% inhibition (low signal) control, percent inhibition EC50s (inflection point) and IC50 s were calculated for the compound dose responses.

H358 cells = experiment: High-throughput proliferation (HTP) assay for H358 cells (CellTiter-Glo, 7 days); assay type: cell-based; details: Homo sapiens, NCI-H358, 168 h, read-out: H358 SMARCA2 IC50
Experimental: Thawing vials: H358 cells (ATCC #CRL-5807™) were thawed from a cryovial containing approximately 1.6×10^6 cells frozen in 70% RPMI 1640 medium, 20% HI-FBS and 10% DMSO. Cells were thawed by submerging the bottom half of the vial in a 37° C. water bath and gently flicked until almost thawed. The cells were removed and transferred into a 15 mL conical tube containing 9 mL RPMI 1640 medium+10% HI-FBS and then centrifuged 200×g for 4 min before drawing off the media without disturbing the cell pellet to remove the DMSO. The cells were resuspended again in 15 mL of RPMI 1640 fresh complete media+10% HI-FBS and grown up in a T75 flask at 37° C. with 5% CO2 Incubator. Viability was measured to obtain baseline.
Preparing frozen stock vials: Cell density was counted in a stock flask. The culture was transferred to a 50 mL conical tube and spun down to remove medium, and then resuspend at 1-2×10^6 cells/mL in complete medium containing 10% DMSO and transferred to a 1 mL per vial.
as §1
Day 0: Assay ready plates were prepared by dispensing 50 nL of compound stock or DMSO in the appropriate wells of 384-well white CulturPlates using Echo550. Using the Multiflo, H358 cells at 50 μL/well were plated in RPMI 1640 complete media+10% HI-FBS+1% pen/strep at cell density determined [20,000 cells/mL (1,000 cells/well)] from growth curve. Treated cells were inclubated at 37° C., 5% CO2, relative humidity >90% for 7 days. CellTiter-Glo (CTG) ATP detection reagent was prepared according to manufacturer's specifications. Cell assay plates were removed from incubator and bring to room temperature (RT).
Using the MultiDrop liquid handler, 30 μL of CTG were added per well. Plates were placed on the multidrop dispenser shake for 5 seconds at RT. Plates were incubated for 30 minutes in the dark at RT before measuring luminescence using the Envison2104.
Data analysis: Using the DMSO control wells as the 0% inhibition (high signal) control and the 10 uM Doxorubicin control wells as the 100% inhibition (low signal) control, percent inhibition EC50s (inflection point) and IC50s were calculated for the compound dose responses.

FL-SMARCA4 = FL-SMARCA4 (Homo sapiens, UniProt P51532); experiment: SMARCA4 ATPase activity assay (ADP-Glo, chicken mononucleosome substrate)
[2] = FL-SMARCA4 IC>50, Table 3c.2, ATPase assay, enzyme 5 nM, ATP 250 uM, chicken mononucleosome 10 nM, 30 min preincubation
[3] = Table 3d.1, read-out: FL-SMARCA2 IC>50
[4] = FL-SMARCA4 IC50, Table 3.2, ATPase assay, enzyme 5 nM, ATP 250 uM, chicken mononucleosome 10 nM, 30 min preincubation

T1 sequence (P51531 with tags, fused parts or gaps): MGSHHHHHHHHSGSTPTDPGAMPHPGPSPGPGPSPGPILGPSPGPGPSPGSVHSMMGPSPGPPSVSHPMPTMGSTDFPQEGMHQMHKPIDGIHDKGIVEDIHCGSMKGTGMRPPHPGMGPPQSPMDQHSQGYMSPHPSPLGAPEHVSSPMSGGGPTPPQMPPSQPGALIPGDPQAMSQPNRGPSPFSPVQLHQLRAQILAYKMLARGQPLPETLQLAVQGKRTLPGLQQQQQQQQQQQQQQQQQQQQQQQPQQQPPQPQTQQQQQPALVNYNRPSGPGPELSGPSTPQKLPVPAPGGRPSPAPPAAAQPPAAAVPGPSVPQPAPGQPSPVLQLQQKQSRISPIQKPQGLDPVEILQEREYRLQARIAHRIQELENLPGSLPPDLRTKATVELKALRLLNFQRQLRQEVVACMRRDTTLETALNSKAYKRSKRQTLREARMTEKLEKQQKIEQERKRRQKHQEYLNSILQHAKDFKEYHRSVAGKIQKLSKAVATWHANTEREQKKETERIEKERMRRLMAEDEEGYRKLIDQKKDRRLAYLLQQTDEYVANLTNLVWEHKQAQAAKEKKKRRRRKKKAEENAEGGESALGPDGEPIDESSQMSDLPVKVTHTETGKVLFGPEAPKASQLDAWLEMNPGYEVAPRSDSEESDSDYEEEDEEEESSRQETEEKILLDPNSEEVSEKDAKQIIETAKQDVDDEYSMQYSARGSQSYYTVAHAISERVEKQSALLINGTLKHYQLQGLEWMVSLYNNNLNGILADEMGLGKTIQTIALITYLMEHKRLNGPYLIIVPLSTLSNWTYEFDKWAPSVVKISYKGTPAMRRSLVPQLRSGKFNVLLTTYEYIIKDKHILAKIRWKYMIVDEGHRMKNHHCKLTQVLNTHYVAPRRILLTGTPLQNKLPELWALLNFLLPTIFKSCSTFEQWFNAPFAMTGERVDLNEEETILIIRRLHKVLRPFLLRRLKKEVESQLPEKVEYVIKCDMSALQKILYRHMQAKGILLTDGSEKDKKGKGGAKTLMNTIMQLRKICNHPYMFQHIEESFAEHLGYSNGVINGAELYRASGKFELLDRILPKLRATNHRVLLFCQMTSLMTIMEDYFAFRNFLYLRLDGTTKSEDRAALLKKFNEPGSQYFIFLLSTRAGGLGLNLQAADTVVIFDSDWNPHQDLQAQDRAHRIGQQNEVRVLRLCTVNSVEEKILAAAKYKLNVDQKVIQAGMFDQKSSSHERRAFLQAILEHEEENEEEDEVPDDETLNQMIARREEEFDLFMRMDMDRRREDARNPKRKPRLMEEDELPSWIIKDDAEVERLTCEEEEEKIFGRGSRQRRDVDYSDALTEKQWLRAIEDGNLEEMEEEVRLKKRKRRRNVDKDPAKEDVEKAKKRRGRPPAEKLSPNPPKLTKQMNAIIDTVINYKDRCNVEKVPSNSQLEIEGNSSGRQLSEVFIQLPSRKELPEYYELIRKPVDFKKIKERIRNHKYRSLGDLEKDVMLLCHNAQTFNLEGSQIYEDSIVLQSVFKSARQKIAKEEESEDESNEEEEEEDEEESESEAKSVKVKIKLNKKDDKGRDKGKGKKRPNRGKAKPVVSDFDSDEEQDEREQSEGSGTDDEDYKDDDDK
Sequence of FL-SMARCA4 (P51532 whole entry): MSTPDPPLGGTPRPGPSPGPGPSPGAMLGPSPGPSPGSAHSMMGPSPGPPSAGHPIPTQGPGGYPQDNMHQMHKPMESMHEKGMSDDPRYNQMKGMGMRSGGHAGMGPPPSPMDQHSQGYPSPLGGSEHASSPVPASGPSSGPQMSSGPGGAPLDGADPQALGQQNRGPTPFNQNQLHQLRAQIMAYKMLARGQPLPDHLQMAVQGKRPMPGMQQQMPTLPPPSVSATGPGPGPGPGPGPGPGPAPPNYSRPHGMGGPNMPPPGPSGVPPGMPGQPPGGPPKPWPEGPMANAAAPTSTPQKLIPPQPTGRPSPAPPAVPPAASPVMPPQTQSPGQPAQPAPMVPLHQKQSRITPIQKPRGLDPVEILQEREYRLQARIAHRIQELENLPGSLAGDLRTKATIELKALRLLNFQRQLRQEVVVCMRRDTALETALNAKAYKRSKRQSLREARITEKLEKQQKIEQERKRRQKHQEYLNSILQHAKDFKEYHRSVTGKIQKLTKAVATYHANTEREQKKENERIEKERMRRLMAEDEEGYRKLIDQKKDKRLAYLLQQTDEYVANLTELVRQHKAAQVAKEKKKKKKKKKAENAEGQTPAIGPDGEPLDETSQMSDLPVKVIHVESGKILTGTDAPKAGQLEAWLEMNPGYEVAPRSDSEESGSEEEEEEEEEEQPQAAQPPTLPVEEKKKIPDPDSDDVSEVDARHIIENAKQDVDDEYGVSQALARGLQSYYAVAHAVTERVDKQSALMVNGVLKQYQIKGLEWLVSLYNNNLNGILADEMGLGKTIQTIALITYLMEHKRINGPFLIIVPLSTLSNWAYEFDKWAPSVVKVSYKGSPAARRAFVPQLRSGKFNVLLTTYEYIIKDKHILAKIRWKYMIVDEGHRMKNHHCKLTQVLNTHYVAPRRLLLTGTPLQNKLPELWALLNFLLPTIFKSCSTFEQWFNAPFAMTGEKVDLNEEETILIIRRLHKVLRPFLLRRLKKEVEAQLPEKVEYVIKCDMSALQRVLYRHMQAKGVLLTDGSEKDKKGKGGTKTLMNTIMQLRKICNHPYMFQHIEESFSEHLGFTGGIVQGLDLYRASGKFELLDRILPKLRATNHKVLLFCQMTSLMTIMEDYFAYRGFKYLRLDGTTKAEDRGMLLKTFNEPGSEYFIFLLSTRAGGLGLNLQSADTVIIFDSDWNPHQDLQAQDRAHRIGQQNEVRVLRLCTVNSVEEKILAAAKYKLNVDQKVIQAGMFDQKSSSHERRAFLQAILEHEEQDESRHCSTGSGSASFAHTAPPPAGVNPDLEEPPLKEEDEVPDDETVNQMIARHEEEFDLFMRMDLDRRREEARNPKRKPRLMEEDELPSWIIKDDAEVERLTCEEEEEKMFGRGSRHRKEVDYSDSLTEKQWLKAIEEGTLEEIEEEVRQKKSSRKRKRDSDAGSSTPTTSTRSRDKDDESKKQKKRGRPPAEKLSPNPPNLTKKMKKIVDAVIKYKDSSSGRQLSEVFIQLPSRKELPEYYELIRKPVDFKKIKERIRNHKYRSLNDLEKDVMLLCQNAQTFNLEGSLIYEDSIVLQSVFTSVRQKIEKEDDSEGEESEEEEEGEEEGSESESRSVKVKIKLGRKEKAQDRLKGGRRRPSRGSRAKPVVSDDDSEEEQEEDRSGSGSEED

Row | IC50 ([1]; Table 3c.1) | IC50 (A549 cells) | IC50 (H358 cells) | IC50 (FL-SMARCA4; [2]) | IC50 [1, 3] | IC50 (FL-SMARCA4; FL-SMARCA4 IC50) | IC50 ([1]; Table 3.1) | IC50 (FL-SMARCA4; [4]) | SMILES
1 | 28.5 nM | 1160 nM | > 10000 nM | 75.9 nM |  |  |  |  | Cn1cc(C#Cc2cc(C(=O)Nc3cc(F)c(=O)n(CC(F)F)c3)sc2Cl)cn1 [Compound 5c]
2 | 30.1 nM | 664 nM | > 10000 nM | 60.8 nM |  |  |  |  | O=C(Nc1cc(F)c(=O)n(CC(F)F)c1)c1cc(C#CC2CCOCC2)c(Cl)s1 [Compound 22c]
3 | 14.2 nM | 614 nM | > 10000 nM |  |  |  |  |  | O=C(Nc1cc(F)c(=O)n(CC(F)F)c1)c1cc(F)c(C(F)(F)F)s1 [Compound 25c]
4 | 93.8 nM | 1460 nM | > 10000 nM | 233 nM |  |  |  |  | N#Cc1cccc(C#Cc2cc(C(=O)Nc3cc(F)c(=O)n(CC(F)F)c3)sc2Cl)c1 [Compound 34c]
5 | 698 nM | 3700 nM | 8760 nM | 905 nM |  |  |  |  | O=C(Nc1cc(F)c(=O)n(CC(F)F)c1)c1cc(C#Cc2ccc(Cl)cc2)c(Cl)s1 [Compound 35c]
6 | 482 nM | 9050 nM | > 10000 nM | 2490 nM |  |  |  |  | O=C(Nc1cc(F)c(=O)n(CC(F)F)c1)c1cc(C(F)(F)F)c(Cl)s1 [Compound 37c]
7 | 78 nM | 1370 nM | > 10000 nM | 143 nM |  |  |  |  | Cc1ncc(C#Cc2cc(C(=O)Nc3cc(F)c(=O)n(CC(F)F)c3)sc2Cl)s1 [Compound 39c]
8 | 99.5 nM | 2830 nM | > 10000 nM | 259 nM |  |  |  |  | O=C(Nc1cc(F)c(=O)n(CC(F)F)c1)c1cc(C#Cc2cnccn2)c(Cl)s1 [Compound 40c]
9 | 82.7 nM | 4270 nM | > 10000 nM | 250 nM |  |  |  |  | O=C(Nc1cc(F)c(=O)n(CC(F)F)c1)c1cc(C#Cc2ccccc2)c(Cl)s1 [Compound 41c]
10 | 203 nM | 5080 nM | > 10000 nM | 477 nM |  |  |  |  | COc1cccc(C#Cc2cc(C(=O)Nc3cc(F)c(=O)n(CC(F)F)c3)sc2Cl)c1 [Compound 42c]
11 | 130 nM | 2940 nM | > 10000 nM | 329 nM |  |  |  |  | N#Cc1ccc(C#Cc2cc(C(=O)Nc3cc(F)c(=O)n(CC(F)F)c3)sc2Cl)cc1 [Compound 43c]
12 | 98.1 nM | 4260 nM | > 10000 nM | 232 nM |  |  |  |  | O=C(Nc1ccc(=O)n(CC(F)F)c1)c1cc(F)c(Cl)s1 [Compound 45c]
13 | 65 nM | 1410 nM | > 10000 nM | 177 nM |  |  |  |  | O=C(Nc1cc(F)c(=O)n(CC(F)F)c1)c1cc(Cl)c(Cl)s1 [Compound 47c]
14 | 25300 nM | > 10000 nM | > 10000 nM | > 50000 nM |  |  |  |  | O=C(Nc1cc(F)c(=O)n(CC(F)F)c1)c1sc(C(F)(F)F)cc1Cl [Compound 48c]
15 | 45.2 nM | 1920 nM | > 10000 nM | 166 nM |  |  |  |  | CCn1cc(C#Cc2cc(C(=O)Nc3cc(F)c(=O)n(CC(F)F)c3)sc2Cl)cn1 [Compound 54c]
16 | 77.8 nM | 3780 nM | > 10000 nM | 269 nM |  |  |  |  | O=C(Nc1cc(F)c(=O)n(CC(F)F)c1)c1cc(C#Cc2cccnn2)c(Cl)s1 [Compound 55c]

Row | IC50 ([1]; Table 3c.1) | IC50 (A549 cells) | IC50 (H358 cells) | IC50 (FL-SMARCA4; [2]) | IC50 [1, 3] | IC50 (FL-SMARCA4; FL-SMARCA4 IC50) | IC50 ([1]; Table 3.1) | IC50 (FL-SMARCA4; [4]) | SMILES
17 |  | > 10000 nM | > 10000 nM |  | 92.6 nM | 246 nM |  |  | CNC(=O)c1cc(C#Cc2cc(C(=O)Nc3cc(F)c(=O)n(CC(F)F)c3)sc2Cl)on1 [Compound 55d]
18 | 297 nM | 4400 nM | 9020 nM | 1040 nM |  |  |  |  | O=C(Nc1cc(F)c(=O)n(CC(F)F)c1)c1cc(C#Cc2cccc(Cl)c2)c(Cl)s1 [Compound 56c]
19 |  | 6240 nM | > 10000 nM |  | 98.4 nM | 535 nM |  |  | N#Cc1cc(C(=O)Nc2cc(C#N)c(=O)n(CC(F)F)c2)sc1C(F)(F)F [Compound 56d]
20 | 20.9 nM | 3610 nM | > 10000 nM | 99.9 nM |  |  |  |  | NC(=O)c1cccc(C#Cc2cc(C(=O)Nc3cc(F)c(=O)n(CC(F)F)c3)sc2Cl)c1 [Compound 57c]
21 |  | > 10000 nM | > 10000 nM |  | 51.6 nM | 191 nM |  |  | CC(=O)NC1COCC(C#Cc2cc(C(=O)Nc3cc(F)c(=O)n(CC(F)F)c3)sc2Cl)C1 (stereo not drawn) [Compound 57d]
22 | 44.7 nM | 1500 nM | > 10000 nM | 178 nM |  |  |  |  | O=C(Nc1cc(F)c(=O)n(CC(F)F)c1)c1cc(C#CC2CCOC2)c(Cl)s1 (stereo not drawn) [Compound 58c]
23 |  | > 10000 nM | > 10000 nM |  | 61.9 nM | 102 nM |  |  | O=C1Cc2ncc(C#Cc3cc(C(=O)NC4=NC(CC(F)F)C(=O)C(F)=C4)sc3Cl)cc2N1 (stereo not drawn) [Compound 58d]
24 |  | 3650 nM | > 10000 nM |  | 43.2 nM |  |  |  | O=C(Nc1cc(Cl)c(=O)n(CC(F)F)c1)c1cc(Cl)c(C(F)(F)F)s1 [Compound 79d]
25 | 352 nM | > 10000 nM | > 10000 nM |  |  |  |  |  | Cc1nnc(C#Cc2cc(C(=O)Nc3cc(F)c(=O)n(CC(F)F)c3)sc2Cl)[nH]1 [Compound 127c]
26 |  | 932 nM | > 10000 nM | 14.5 nM |  |  |  |  | O=C(Nc1cc(F)c(=O)n(CC(F)F)c1)c1cc(C#Cc2ccnc(-c3ncco3)c2)c(Cl)s1 [Compound 150c]
27 |  | > 10000 nM | 8740 nM |  |  |  |  |  | Cn1cncc1C#Cc1cc(C(=O)Nc2cc(F)c(=O)n(CC(F)F)c2)sc1Cl [Compound 330]
28 |  | > 10000 nM |  |  |  |  | 1240 nM | 5870 nM | O=C(Nc1cc(C(F)(F)F)c(=O)n(CC(F)F)c1)c1cc(F)c(Cl)s1 [Compound 336]
29 |  | 769 nM |  |  |  |  | 33.7 nM | 104 nM | O=C(Nc1cc(Cl)c(=O)n(CC(F)F)c1)c1cc(F)c(Cl)s1 [Compound 337]
30 |  | 3210 nM |  |  |  |  | 89 nM | 363 nM | N#Cc1cc(NC(=O)c2cc(F)c(Cl)s2)cn(CC(F)F)c1=O [Compound 338]
31 |  | > 10000 nM |  |  |  |  | 943 nM | 2320 nM | CC(O)C#Cc1cc(C(=O)Nc2cc(F)c(=O)n(CC(F)F)c2)sc1Cl (stereo not drawn) [Compound 339]
32 |  | > 10000 nM |  |  |  |  | 695 nM | 4890 nM | CC(CF)n1cc(NC(=O)c2cc(Cl)c(C(F)(F)F)s2)cc(F)c1=O (stereo not drawn) [Compound 340]
